What all share (type): in vivo
One test relates to SD rats. Briefly: MIA-induced osteoarthritis (OA) model in rats. The method, then:
SD rats, approximately 200 g, male. Purchased from Shanghai Bikai Animal Co., Ltd. Adaptive feeding was conducted for about 7 days.
3.1.1 Anesthesia: the rat was placed into the anesthesia box, the O2 gas source and the gas delivery pump were turned on, and the gas adjustment knob was rotated to set the ratio of O2 to isoflurane at 8:2. The anesthesia depth knob was adjusted: first the indicator was turned to 3 to induce deep anesthesia in the rat; during the subsequent surgical procedure, the indicator was adjusted to 1.5 to maintain anesthesia. The three-way valve was opened to deliver gas into both the anesthesia box and the rat anesthesia mask.
The syringe needle was inserted at a 45° angle to the plateau along the lateral side of the patellar ligament, as shown in the figure below. The Control group is injected with 50 µl of 0.9% sterile normal saline, while the other groups are injected with 50 µl of sterile normal saline containing 3 mg of MIA. After the procedure, the rat was removed, placed in a breeding cage, and irradiated with an incandescent lamp to help restore body temperature until the rat recovers from anesthesia.
The Control group was administered 5% DMSO + 35% PEG400 + 60% normal saline. The compounds were dissolved in a system consisting of 5% dimethyl sulfoxide (DMSO), 35% polyethylene glycol 400 (PEG 400), and 60% normal saline. The drug solutions were prepared on the evening one day before administration.
The rats were acclimated for 1 week and randomly divided into groups, with a total of 10 rats. The Control group was administered 5% DMSO + 35% PEG400 + 60% normal saline, while the other groups were given the test compounds dissolved in 5% DMSO + 35% PEG400 + 60% normal saline.
3.4.1. From Day 1 to Day 14 of the experiment, the rats were administered intragastrically once daily, with a gavage volume of 5 mL/kg. The Control group and Model group were given 5% DMSO + 35% PEG400 + 60% normal saline throughout the experiment, while the other groups were administered the corresponding drugs.
On Day 7 and Day14 of the experiment, behavioral and joint pain tests were performed on the rats. To minimize confounding factors, the tests were conducted 1 hour after administration at a fixed time, preventing variations in the rats' condition at different time points from affecting the experimental results. The rats were allowed to acclimate to the environment for 20 minutes before the start of the experiment. • (1) Observation of walking distance and rearing times within five minutes: the dimensions of the resin box were measured and a paper sheet of the corresponding size was prepared. 1 cm × 1 cm grids were drawn on the paper sheet. The paper sheet was sealed with a transparent tape to prevent damage from rat excrement. Then the paper sheet with 1 cm × 1 cm grids was placed into the transparent resin box, ensuring a flat bottom. A camera device was used to record the walking process and trajectory of the rat within 5 minutes, and the walking distance and rearing times of the rat were counted. • (2) Joint Pain Assessment: After fixing the rat and allowing it to calm down, its knee joint was gently bent. […] The knee joint pain severity in rats is reflected by the scores of leg withdrawal and vocalization. The joint pain assessment was performed every 5 seconds for a total of 5 times.
On Day 15 of the experiment, the rats were anesthetized, and blood was collected from their eyeballs. The serum was left to stand overnight at 4°C, centrifuged at 3600 rpm for 15 minutes at 4°C. The serum was aspirated and stored at -80°C. The rats were sacrificed by cervical dislocation. An incision was made along the knee joint on ice to remove fur, muscle, and other tissues. For each group, 5 rats were used; bilateral knee joints were dissected, and the color, roughness, and integrity of the femoral condyle surface were observed. The knee joint cartilage was then harvested and cryopreserved at -80°C. […]

In test [1] the test system is BALB/c mice. Briefly: DSS-induced acute ulcerative colitis in mice (Example 6). The method, then:
From Day 0 to Day 14 of the experiment, the mice were weighed daily and their blood and stool conditions were observed, scored and recorded according to the following table (Table 1). Random grouping was performed on Day 1, and modeling was conducted from Day 1 to Day 7. All groups except the Control group were given 3.5% DSS water daily. Re-grouping was performed on Day 8. The Control group and Model group received no medication and were given tap water; the other groups were administered intragastrically with 1 mg/kg, 3 mg/kg, 9 mg/kg, and SASP (Sulfasalazine or Salicylazosulfapyridine) 500 mg/kg, respectively. On Day 15, blood and colon samples were collected, colon length was measured, and a 1-2 cm segment of the colon was fixed with formaldehyde.
(§1) • BALB/c mice, male, 20-22 g • Dextran sulfate sodium MW: 36,000-50,000 (DSS) • 30 1 mg/kg, 3 mg/kg, 9 mg/kg, SASP (500 mg/kg) indicators were observed.
(§2) (1) Clinical Symptom Score: The mice were weighed daily and their blood and stool were observed during the experiment for DAI scoring, which was graded and recorded according to the following table (Table 1).
(§3) (2) After the experiment, the colon was removed, its length measured and weight recorded. The colon-to-body weight index (colon weight/body weight × 100%) and colon swelling rate (colon weight/length × 100%) were calculated.
(§4) Colonic tissue approximately 1 cm from the anal margin (0.5 cm) and ileocecal region tissue were collected for histopathological examination. After H&E staining, the tissues were scored under single-blind conditions to evaluate the level of distal colon inflammation and tissue damage; scoring was performed according to the Ameho criteria and calculated as follows: • Score 0: No abnormal findings in the texture. • Score 1: Mild inflammatory infiltration of the mucosa and/or submucosa (mixed with neutrophils), submucosal edema, punctate mucosal erosion, accompanied by capillary proliferation. The muscularis mucosae is intact. • Score 2: Changes of Score 1 account for more than 50%. • Score 3: Obvious inflammatory infiltration and edema (neutrophils are often predominant); ulcers usually penetrate the muscularis mucosae to reach the submucosa. There is little inflammatory cell infiltration in the muscularis propria and no muscle necrosis. • Score 4: Changes of Score 3 account for more than 50%. • Score 5: Large confluent ulcers with coagulative necrosis, massive neutrophil infiltration at the margins and few monocytes. Necrotic tissue penetrates the muscularis propria. • Score 6: Changes of Score 5 account for more than 50% of the specimen.
The fence function of Occludin separates the apical and basolateral sides of the epithelial cell plasma membrane, restricting the free flow of lipids on the cell membrane, facilitating the formation of cell polarity, maintaining the impermeability and rigidity of the intestinal mucosa, and preventing the entry of pathogenic microorganisms. The barrier function of Occludin can regulate the transport of small molecules and maintain tissue homeostasis. […]

For test [2], the system named is BALB/c mice. Briefly: DSS-induced chronic ulcerative colitis in mice (Example 6).
Text: BALB/c mice were acclimatized for 7 days before the experiment. From Day 7 to Day 50 of the experiment, the mice were weighed daily and their blood and stool conditions were observed, scored and recorded according to the following table (Table 1). After random grouping, all groups except the Control group were given free access to 2-3% DSS solution for modeling from Day 7 to Day 14, while the Control group received normal drinking water during the same period. One cycle lasted 14 days and was repeated 3 times. Re-grouping was performed at the start of the final cycle to initiate drug administration. The Control group and Model group received no drug but the same solvent. The other groups were intragastrically administered 1 mg/kg, 3 mg/kg, 9 mg/kg, and SASP 500 mg/kg respectively. On Day 45, blood and colon samples were collected, colon length was measured, and a 1-2 cm colon segment was fixed with formaldehyde.
as §1, §2, §3, §4
The fence function of Occludin separates the apical and basolateral sides of the epithelial cell plasma membrane, restricting the free flow of lipids on the cell membrane, facilitating the formation of cell polarity, maintaining the impermeability and rigidity of the intestinal mucosa, and preventing the entry of pathogenic microorganisms. The barrier function of Occludin can regulate the transport of small molecules and maintain tissue homeostasis. The expression and distribution of related proteins are detected by immunohistochemistry.
During modeling, the body weight of mice in the control group increased steadily. In the model group, during the first modeling period, mice were given 3% DSS drinking water ad libitum for 7 days, followed by tap water ad libitum for 7 days. On Day 4 of modeling, the body weight of mice began to decrease generally, reaching the lowest point on Day 8, and then started to rise. During the second modeling period, mice were given 2% DSS drinking water ad libitum for 7 days, followed by tap water ad libitum for 7 days. […]

Where [3] appears, read: DAY7, diclofenac sodium 2.5 mg/kg, vs Model group.

“Also recorded” adds a separate entry of the source.

Turning to `O=C(O)Cc1ccccc1Nc1c(Cl)cccc1Cl` [diclofenac sodium, reference compound], in the test on SD rats (setting [3]), the five-minute walking distance entry is “increased significantly” and the pain index result is given as “significantly decreased”. Further, the “gross observation of knee joint femoral condyle cartilage” value in the test with SD rats (Day 15 dissection, 5 rats per group) is “knee cartilage in most rats became smooth and glossy; also recorded: cartilage of most rat knee joints became smooth and bright”. In addition, in the test with SD rats (Elisa, vs Model group), the “serum IL-10 level” value is “significantly increased”. Besides, the “OARSI score (severity of knee osteoarthritis)” value in the test with SD rats (diclofenac sodium 2.5 mg/kg, vs Model group) is “significantly milder than that in the Model group”. In addition, the “Safranin O-Fast Green staining of knee joints” value in the test on SD rats (vs Model group) was “enhanced Safranin O staining”.
Consider `O=C(O)c1cc(/N=N/c2ccc(S(=O)(=O)Nc3ccccn3)cc2)ccc1O` [SASP, Sulfasalazine, reference compound], for which the body weight recovery result in the test with BALB/c mice [1] (30 at 3 mg/kg, SASP at 500 mg/kg, vs model group) was “faster body weight recovery with a greater rebound amplitude”; in the test with BALB/c mice [2] (30 treatment groups (1, 3, 9 mg/kg), SASP 500 mg/kg, vs model group) it was “recovered rapidly and increased substantially”. Further, the “daily DAI score” value in the test with BALB/c mice [1] (30 treatment groups, SASP 500 mg/kg, vs model group) is reported as “decreased more rapidly”; in the test on BALB/c mice [2] (30 treatment group, SASP 500 mg/kg, vs model group), “decreased more rapidly”. Further, the “colon pathological changes (H&E staining)” value with BALB/c mice [1] (SASP 500 mg/kg) is listed as “still had inflammatory cell infiltration, but to a lesser extent than the Model group”; in the test on BALB/c mice [2] (SASP 500 mg/kg) it was “inflammatory cell infiltration, but to a lesser extent than the Model group”. Further, the survival rate in the test with BALB/c mice [1] (SASP 500 mg/kg intragastric from Day 8, 8 mice, model group 75%) came to 87.5%. Moreover, the “Occludin expression in colonic mucosa (immunohistochemistry)” value in the test with BALB/c mice [1] (vs Model group) and with BALB/c mice [2] (vs Model group) was “the expression of Occludin was increased” throughout.
